Measurements from PubChem BioAssay (NCI).
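Briefly, cells in 96-well plates were exposed to five compound concentrations for 48 h, and endpoints were estimated by linear interpolation. Here, GI50 denotes the concentration required for 50% inhibition of growth. TGI marks complete inhibition of growth.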

How the values were obtained:
Test in all cases: DTP human tumour cell line panel, 48 h
HOP-62 NSCLC = tested on: HOP-62 NSCLC
HCC-2998 colon = tested on: HCC-2998 colon
CAKI-1 renal = tested on: CAKI-1 renal
SK-OV-3 ovarian = tested on: SK-OV-3 ovarian
A498 renal = tested on: A498 renal
TK-10 renal = tested on: TK-10 renal
HOP-92 NSCLC = tested on: HOP-92 NSCLC
U251 CNS = tested on: U251 CNS
SN12C renal = tested on: SN12C renal
COLO 205 colon = tested on: COLO 205 colon
UACC-62 melanoma = tested on: UACC-62 melanoma
MDA-MB-231 breast = tested on: MDA-MB-231 breast
UACC-257 melanoma = tested on: UACC-257 melanoma
DU-145 prostate = tested on: DU-145 prostate
OVCAR-8 ovarian = tested on: OVCAR-8 ovarian
HCT-116 colon = tested on: HCT-116 colon
KM12 colon = tested on: KM12 colon
MOLT-4 leukemia = tested on: MOLT-4 leukemia
RPMI-8226 leukemia = tested on: RPMI-8226 leukemia

Compound | TGI (HOP-62 NSCLC) [µM] | TGI (HCC-2998 colon) [µM] | TGI (CAKI-1 renal) [µM] | TGI (SK-OV-3 ovarian) [µM] | TGI (A498 renal) [µM] | TGI (TK-10 renal) [µM] | TGI (HOP-92 NSCLC) [µM] | TGI (U251 CNS) [µM] | TGI (SN12C renal) [µM] | TGI (COLO 205 colon) [µM] | TGI (UACC-62 melanoma) [µM] | TGI (MDA-MB-231 breast) [µM] | TGI (UACC-257 melanoma) [µM] | TGI (DU-145 prostate) [µM] | TGI (OVCAR-8 ovarian) [µM] | TGI (HCT-116 colon) [µM] | TGI (KM12 colon) [µM] | TGI (MOLT-4 leukemia) [µM] | TGI (RPMI-8226 leukemia) [µM] | GI50 (RPMI-8226 leukemia) [µM]
N#Cc1nc(CSCc2ccccc2)oc1N | > 100 | > 100 | > 100 | > 100 | > 100 | > 100 | > 100 | > 100 | > 100 | > 100 | > 100 | > 100 | > 100 | > 100 | > 100 | > 100 | > 100 | > 100 |  | 
Cc1nc2ccccc2c(=O)n1-c1n[nH]c2ccccc12 | > 100 | > 100 | > 100 |  | > 100 | > 100 | > 100 | > 100 | > 100 | > 100 | > 100 | > 100 | > 100 | > 100 | > 100 | > 100 | > 100 | > 100 | > 100 | 
CCC[C@H](O)[C@@H](CNc1cc(NC(C)=O)nc(NC(C)=O)n1)N(Cc1ccccc1)Cc1ccccc1 | 36.2 | > 100 | 38.5 | 63.4 | > 100 | 45.1 | > 100 | > 100 | > 100 | > 100 | 57 | > 100 | > 100 | > 100 | 35.1 | 54.1 | 39.1 | > 100 | > 100 | 
C=C[C@@H](OCOCC[Si](C)(C)C)[C@@H](CC)OC(CCCOC(=O)C(C)(C)C)OC (some centres undefined) | > 100 |  | > 100 | > 100 | > 100 | 78.9 | > 100 | 57.6 | > 100 | 95.1 | 81.3 | > 100 | > 100 | > 100 | > 100 | 52.8 | 63 | > 100 | > 100 | 
Nc1nc(N)c(C2=CCN(Cc3ccccc3)CC2)c(=O)[nH]1 | > 100 |  | > 100 | > 100 | > 100 |  | > 100 | > 100 | > 100 | > 100 | > 100 | > 100 | > 100 | > 100 | > 100 | > 100 | > 100 | > 100 | > 100 | 
COc1ccc(C2=C(Cl)c3cc(OC)c(OC)cc3C2=O)cc1OC | 30.4 | 38.9 | 4.24 | 36.9 | 32 | 25.6 | 4 |  | 32.9 | 16.2 | 29.6 | 36.5 | 15.5 | 32.7 | 31.9 | 15.2 | 32.2 | > 100 | 87.1 | 
Cc1c(/C=N/NC(=S)Nc2cccc(Cl)c2)c(=O)n(-c2ccccc2)n1C | 26.9 | > 100 | 25.7 | 38.2 | 19.9 | 44.3 | 31.7 | 44.6 |  | > 100 | > 100 | 43.8 | > 100 | 66.9 | 35.6 | > 100 | > 100 | > 100 | > 100 | 
COc1ccc(N)c(C(O)CCNC(C)=O)c1 (centres undefined) |  |  | > 100 | > 100 | > 100 | > 100 | > 100 | > 100 | > 100 | > 100 | > 100 | > 100 | > 100 | > 100 | > 100 | > 100 | > 100 | > 100 | > 100 | 
Cc1nc(Cl)c(Cl)c(Cl)n1 | 0.974 | 7.04 |  | 7.53 | 4.81 | 3.51 | 0.849 | 4.07 | 1.26 | 1.42 | 1.46 | 0.656 | 1.62 | 9.24 | 2 | 0.24 | 1 | < 0.025 | 0.203 | 
C[C@]12CCC3c4ccc(O)cc4CC[C@H]3C1CC(=O)N(N)C2=O (some centres undefined) | > 100 | > 100 | > 100 | > 100 | > 100 | > 100 | > 100 | > 100 | > 100 | > 100 | > 100 | > 100 | > 100 | > 100 | > 100 | > 100 | > 100 | > 100 |  | 
CC1=C(C(=O)N[C@@H](Cc2ccccc2)C(=O)O)N2C(=O)[C@@H](NC(=O)[C@@H](N)CC(C)C)[C@H]2SC1 |  | > 100 | > 100 |  | > 100 | > 100 | > 100 | > 100 | > 100 | > 100 | > 100 | > 100 | > 100 | > 100 | > 100 |  | > 100 | > 100 | > 100 | 
O=C1c2cccc3cccc(c23)C(=O)N1CCCNCCCCNCCCN1C(=O)c2cccc3cccc(c23)C1=O | 2.66 | 0.568 | 5.65 | 6.65 | 2.45 | 7.62 | 1.59 | 1.22 | 2.37 | 1.25 | 1.44 | 1.09 | 1.91 | 1.14 | 2.24 | 0.668 | 3.66 |  | 0.179 | 
Cc1nc(Cl)c2sc(=S)n(-c3ccc(F)cc3)c2n1 | 9.73 | 20.3 | 3.11 | 25.9 | 7.23 | 12.8 | 33.1 | 17.7 | 18.4 | 16.6 | 24 | 20.7 | 10.5 | 3.82 | 33.8 | 4.15 | 25.3 |  | > 100 | 
NC(=O)C(c1ccccc1)N1OC2C(=O)N(Cc3ccccc3)C(=O)C2C1c1cccc(Oc2ccc(Cl)cc2)c1 (centres undefined) | > 100 |  | 31.9 | > 100 | > 100 | 95.6 | > 100 | 85.6 | 30.7 | 32 | 32.3 | > 100 | > 100 | > 100 | > 100 | 44.5 | > 100 | 98.9 |  | 
CC(CN(C)C)C(=O)c1ccccc1C(=O)O (centres undefined) | 85.8 |  | 83.9 | > 100 | > 100 | 47.7 | > 100 | 38.2 | 81.2 | 66.3 | 51.3 | 81.6 |  | > 100 | 98.8 | > 100 | > 100 | 70.1 | 78 | 
CO[C@H]1[C@@H](O)[C@@H](C)O[C@@H](O[C@H]2CC[C@@]3(C)[C@H](CC[C@@H]4[C@@H]3CC[C@]3(C)[C@@H](C5=CC(=O)OC5)CC[C@]43O)C2)[C@@H]1O | 0.00943 | 0.173 | 0.0128 | 0.0491 | 0.813 | 0.0201 | 0.0685 | 0.0415 |  | 0.221 | 0.0228 | 0.269 | 0.0446 | 0.00729 | 0.0444 | 0.0275 | 0.191 | 0.436 | 25 | 0.00781
CCCCC1Cc2ccccc2-c2n1c1ccccc1[n+]2C (centres undefined) | > 100 | 48.3 | > 100 | > 100 | > 100 | > 100 | > 100 | > 100 |  |  |  | > 100 | 25.2 | > 100 | > 100 | > 100 | > 100 | 81.8 | 14 | 
CCN(CC)CCNc1ccc2ncn3c4c(OC)ccc(OC)c4c(=O)c1c23 | > 100 | 31 | > 100 | 44.9 | > 100 | > 100 | 31.2 | 35.6 |  | 20.4 | 57.5 | 29.1 | > 100 | 25.7 | 68.5 | 17.3 | 22.6 | 30.4 |  | 
Oc1[nH]c2ccccc2c1N=NC(=S)N1CCCCC1 | 3.83 | 8.87 | 4.43 | 7.62 | 1.99 | 3.84 | 6.58 | 7.83 | 15.1 | 11.2 | 4.01 | 2.79 |  | 10.9 | 1.8 | 1.54 | 1.62 | 2.15 | 2.43 | 
N#Cc1nc(C2CC2)oc1N | > 100 | > 100 | > 100 | > 100 |  | > 100 | > 100 | > 100 | > 100 | > 100 | > 100 | > 100 | > 100 | > 100 | > 100 | > 100 | > 100 | > 100 | > 100 | 
COc1cccc(/C(CC(O)(C(F)(F)F)C(F)(F)F)=N\N(C)C)c1 | > 100 | > 100 | > 100 | > 100 | > 100 | > 100 | > 100 | > 100 | > 100 | > 100 | > 100 | > 100 |  | > 100 |  | > 100 | > 100 | > 100 | > 100 | 
CCOC(=O)[C@@H]1C[C@H]1c1ccc(O)c(O)c1 | > 100 | 91.9 | > 100 | > 100 |  | > 100 | > 100 | > 100 | > 100 | > 100 | 34.9 | 63.1 | > 100 | > 100 | > 100 | 28.6 | > 100 | > 100 | > 100 | 
O=C1CSC(/C=C/c2ccccc2)N1c1ccc(-c2ccc(-n3c(-c4ccccc4)nc4ccccc4c3=O)cc2)cc1 (centres undefined) | 99.2 | > 100 | 88.7 | > 100 | > 100 | > 100 | 56.2 | 88.5 | > 100 | 36.6 | > 100 | > 100 | 93.1 | > 100 | 92.7 |  | 35.8 | > 100 | > 100 | 
CSc1c(C#N)c(O)n(-c2ccc(C)cc2)c(=O)c1C#N |  | > 100 | > 100 | > 100 | > 100 | > 100 | > 100 | > 100 | > 100 | > 100 | > 100 | > 100 | > 100 | > 100 | > 100 | > 100 | > 100 | > 100 | > 100 | 
CCN(CC)c1ccc2c(c1)OC(=O)C(c1nnc(-c3ccc([N+](=O)[O-])cc3)o1)C2 (centres undefined) | > 100 | > 100 | > 100 | > 100 | > 100 | > 100 | > 100 | > 100 |  | > 100 | > 100 | > 100 | > 100 | > 100 | > 100 | > 100 | > 100 | > 100 | > 100 | 
NCCC(=O)N[C@H](Cc1cc(O)c(O)c(SCC(NC(=O)CC[C@H](N)C(=O)O)C(=O)NCC(=O)O)c1)C(=O)O (some centres undefined) | > 50 | > 50 | > 50 | > 50 | > 50 | > 50 | > 50 | > 50 | > 50 | > 50 | > 50 | > 50 | > 50 | > 50 |  | > 50 | > 50 |  | > 50 | 
